According to patent US8685962B2 (priority 2007, dated 2014):
Read-outs that look alike come from different tables or passages of the source.

Experiments:
[1] = biological target: T1, TSPO receptors in SCC-25 cell line (Homo sapiens, UniProt P30536); assay: Displacement of [3H]PK11195 from TSPO receptors in SCC-25 cells; format: binding; details: for potency in displacing [3H]PK11195, fold lower than PK11195: SCC-25 membrane, relative to PK11195
T1 construct: endogenous in cells; host or cells: SCC-25
Description: (§1) Cells were scraped from the culture dishes, washed with phosphate-buffered saline (PBS), and centrifuged at 1200 g for 10 minutes. Then the cell pellets were re-suspended in 1 mL of 50 mM phosphate buffer, pH 7.4, and centrifuged at 1200 g for 10 minutes. […] After incubation for 80 minutes at room temperature, samples were filtered under vacuum over Whatman GF/B filters and washed three times with phosphate buffer. Filters were placed in vials containing 4 mL of Opti-Fluor (Packard, Groningen, The Netherlands) and counted for radioactivity in a scintillation counter after 12 hours. The maximal number of binding sites (Bmax) and equilibrium dissociation constants were calculated from the saturation curve of [^3H]

human salivary TSPO = biological target: T2, human salivary TSPO (Homo sapiens, UniProt P30536); assay: Competition of TSPO ligands with [3H]PK11195 binding in human saliva; details: for binding affinity lower than that of PK11195: relative to PK11195
T2 construct: from tissue; host or cells: cells pelleted from human saliva samples (volunteers; smokers and non-smokers)
Description: (§2) After 80 minutes of incubation at 4° C., the samples were filtered through Whatman CF/C filters using a vacuum system, washed three times with 4 ml of 5 mM ice-cold phosphate buffer and placed in vials containing 4 ml of Opti-Fluor. Radioactivity was counted after 12 hours with a liquid scintillation analyzer. Specific binding was obtained by subtracting non specific binding from total binding.

H1299 lung cancer cells = assay: Survival of H1299 cells exposed to cigarette smoke with/without saliva; format: cell-based, human; details: for effect on survival of H1299 cells exposed to CS (in words): CS + 30% saliva
Description: Four control groups, not exposed to tobacco smoke (referred to herein as TS or alternatively, as CS, standing for “cigarette smoke”) were compared to four study groups (similar groups which were also exposed to CS), as detailed hereinafter. The four control groups included the following: a group where the cells were incubated in medium alone and exposed to air (M), a group where the cells were incubated in medium supplemented with whole saliva and exposed to air (M+saliva), a group where the cells where incubated in medium and exposed to CS (M+CS) and a group where the cells were incubated in medium supplemented with saliva and exposed to CS (M+saliva+CS).
During smoke exposure, the cells were put into a smoking sealed chamber (33.5 cm^3) with CS pressure of 0.3 Bar. Control cells were subjected to the same procedures, but exposed only to fresh air. Cells were exposed to CS for one “puff” every 20 minutes for a 2 hours (120 minutes) period (unless indicated otherwise). Cells exposed to air served as control. Cells were used when it becomes confluent and the medium (with/without saliva) volume was compatibly to the dish in use.
In order to examine the possible effect of TSPO receptor ligands on the survival rate of cells exposed to both CS and saliva, the benzodiazepine TSPO ligand, diazepam, was added to cells prior to exposing the cells to CS+30% saliva.

[2] = biological target: T3, TSPO receptors in SCC-15 cell line (Homo sapiens, UniProt P30536); assay: Displacement of [3H]PK11195 from TSPO receptors in SCC-15 cells; format: binding
T3 construct: endogenous in cells; host or cells: SCC-15
Description: as §1

[3] = biological target: T4, TSPO receptors in human tongue cancer cell line SCC-15 (Homo sapiens, UniProt P30536); assay: [3H]PK11195 saturation binding (Scatchard) in SCC-15 cells
T4 construct: endogenous in cells; host or cells: SCC-15
Description: as §1

TSPO receptor in saliva [4] = biological target: T5, TSPO receptor in saliva (Homo sapiens, UniProt P30536); assay: [3H]PK11195 saturation binding with Scatchard analysis in human saliva; details: n=10
T5 construct: from tissue; host or cells: cells pelleted from human saliva samples (volunteers; smokers and non-smokers)
Description: as §2

[5] = biological target: T6, TSPO receptors in human tongue cancer cell line SCC-25 (Homo sapiens, UniProt P30536); assay: [3H]PK11195 saturation binding (Scatchard) in SCC-25 cells
T6 construct: Cells were scraped from the culture dishes, washed with phosphate-buffered saline (PBS), and centrifuged; endogenous in cells; host or cells: SCC-25
Description: as §1

TSPO receptor in saliva [6] = biological target: T5, TSPO receptor in saliva; assay: [3H]PK11195 binding in saliva from heavy smokers and non-smokers; details: for mean TSPO binding: 6 nM ligand
Description: as §2
The effect of long term CS-exposure on the salivary TSPO, of heavy smokers, was investigated. Saliva samples were collected from heavy smokers (smokers group) and from a control group of non-smoking volunteers (control group), and the total protein expression level as well as TSPO binding capacity was evaluated as follows.
The mean TSPO binding was calculated and found to be 53% lower in the smokers group, as compared to the control group (694±264; n=9 and 1,480±1,157; n=16, respectively; see, FIG. 7b). This statistically significant reduction (p<0.05) further supports the results obtained for the in-vitro exposure of saliva cells to CS (detailed above), and point to a CS-related reduced TSPO receptor binding capacity.

[7] = biological target: T7, TSPO receptors in H1299 lung cancer cells (Homo sapiens, UniProt P30536); assay: [3H]PK11195 saturation binding (Scatchard) in H1299 cells
T7 construct: Cells were scraped from the culture dishes, washed with phosphate-buffered saline (PBS), and centrifuged; endogenous in cells; host or cells: H1299
Description: as §1

[8] = 10^-8 M, medium + 30% saliva, CS 120 minutes
[9] = 50% inhibition of [3H]PK11195 binding, SCC-25, read-out: IC50
[10] = 50% inhibition of [3H]PK11195 binding, SCC-15, read-out: IC50
[11] = inhibition of [3H]PK11195 binding, human saliva, four independent experiments, read-out: Ki

T2 sequence (P30536 whole entry): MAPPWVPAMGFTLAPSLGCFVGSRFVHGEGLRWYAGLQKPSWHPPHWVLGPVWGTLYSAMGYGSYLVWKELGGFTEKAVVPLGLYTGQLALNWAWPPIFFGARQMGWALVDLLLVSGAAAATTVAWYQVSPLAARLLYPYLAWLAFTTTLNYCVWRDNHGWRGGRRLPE
T3 sequence (P30536 whole entry): as above
T5 sequence (P30536 whole entry): as above
T1 sequence (P30536 whole entry): as above
T6 sequence (P30536 whole entry): as above
T4 sequence (P30536 whole entry): as above
T7 sequence (P30536 whole entry): as above

O=C1CN=C(c2ccccc2Cl)c2cc([N+](=O)[O-])ccc2N1 [Clonazepam]
affinity for TSPO (in words) ([1]; SCC-25): negligible affinity | affinity to TSPO (in words) (human salivary TSPO; human saliva): negligible affinity | effect on survival of H1299 cells exposed to CS (in words) (H1299 lung cancer cells; 10^-7 M): No significant increase in survival levels | effect on survival of H1299 cells exposed to CS (in words) (H1299 lung cancer cells; 10^-7 M, listed as clonazepam): not significantly altered | effect on survival of H1299 cells exposed to CS (in words) (H1299 lung cancer cells; 10^-8 M): did not increase the survival level | decrease of cells survival (H1299 lung cancer cells; [8]): 10.65%

CN1C(=O)CN=C(c2ccccc2)c2cc(Cl)ccc21 [Diazepam]
IC50 [1]: 14200 ± 5720 nM | potency in displacing [3H]PK11195, fold lower than PK11195 [1]: 1580 times | IC50 [2]: 14100 ± 15200 nM | Ki (human salivary TSPO): 4500 nM | binding affinity lower than that of PK11195 (human salivary TSPO; human saliva): three orders of magnitude | effect on survival of H1299 cells exposed to CS (in words) (H1299 lung cancer cells; 10^-7 M): significantly increased | increase of cell survival (H1299 lung cancer cells; 10^-7 M, medium + 30% saliva, CS 120 minutes): 16% | effect on survival of H1299 cells exposed to CS (in words) (H1299 lung cancer cells; 10^-8 M): significantly increased | increase of cell survival (H1299 lung cancer cells; [8]): 17.4%

CCCCCCN(CCCCCC)C(=O)Cc1c(-c2ccc(F)cc2)[nH]c2ccccc12 [FGIN-1-27]
IC50 [1, 9]: 152 ± 19 nM | potency in displacing [3H]PK11195, fold lower than PK11195 [1]: 17 times | IC50 [2, 10]: 164 nM | binding affinity lower than that of PK11195 (human salivary TSPO; human saliva): two orders of magnitude | Ki (human salivary TSPO; [11]): 150 nM

CN1C(=O)CN=C(c2ccc(Cl)cc2)c2cc(Cl)ccc21 [Ro5-4864, 4-chlorodiazepam]
IC50 [1, 9]: 666 ± 36 nM | potency in displacing [3H]PK11195, fold lower than PK11195 [1]: 74 times | IC50 [2, 10]: 2070 ± 1550 nM | binding affinity lower than that of PK11195 (human salivary TSPO; human saliva): two orders of magnitude | Ki (human salivary TSPO; [11]): 500 nM

CCC(C)N(C)C(=O)c1cc2ccccc2c(-c2ccccc2Cl)n1 (stereo not shown) [[^3H]PK11195]
Bmax [3]: 6956±5492 fmoles/mg protein | non-specific binding as part of total binding [3]: 25±3.2% | Bmax (maximal binding capacity) (TSPO receptor in saliva [4]): 6,471±1,584 fmol/mg protein | Bmax (maximal binding capacity) [5]: 3133±643 fmoles/mg protein | non-specific binding as part of total binding [5]: a third | mean TSPO binding (TSPO receptor in saliva [6]; control group (non-smokers), n=16): 1,480±1,157 | mean TSPO binding (TSPO receptor in saliva [6]; smokers group, n=9): 694±264 | mean TSPO binding lower in smokers than control group (TSPO receptor in saliva [6]; smokers vs control group): 53% | maximum amount of specifically bound ligand (Bmax) [7]: 3274±787 pmol/mg of protein
